# According to PubChem BioAssay AID651855 (NMMLSC, 2012):
# Active and inactive are the calls of the source.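 The calls were made as follows: active = compounds whose fitted concentration for half loss of dye binding is under 10 µM; inactive = the rest.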
# Tested on: FAP-tagged hCCR5 cells, MG2p fluorogen binding, flow cytometry
# Assay: interference with FAP-CCR5 fluorogen signal, dose response, counter-screen for beta2AR agonist project, cell-based, FAP-tagged human CCR5, Powderset3 (AID 651855)
# Details: not given
row,SMILES,EC50
1,Cc1ccc(OCc2cc(C(=O)N(C)Cc3cnn(-c4ccccc4C)c3)no2)cn1,0.11 µM
2,C=CCn1c(CCNC(=O)c2cccs2)nnc1SCC(=O)c1ccc(Br)cc1,0.0175 µM
3,Cc1ccc(Cn2ccc(NC(=O)c3cc4nc(-c5ccco5)cc(C(F)(F)F)n4n3)n2)cc1,0.00896 µM
4,Cc1ncc(CN2CCCC(C(=O)Nc3ccc(-c4cccc(F)c4)cc3)C2)s1 (configuration not stated),1.24 µM
5,Clc1ccc(OCc2nnc(SCc3nc4ccccc4[nH]3)n2Cc2ccco2)cc1,0.01 µM
6,CC(C)Cc1nc2sc3c(NCc4ccco4)ncnc3c2c2c1COC(C)(C)C2,0.0394 µM
7,CSc1nc(SCCO)c2sc3nc(-c4ccco4)c4c(c3c2n1)CC(C)(C)OC4,1.87 µM
8,CN(Cc1ccccc1)S(=O)(=O)c1ccc(NS(=O)(=O)Cc2ccccc2)cc1,0.106 µM
9,CC(Oc1ccc(Cl)cc1Cl)c1nc(-c2ccc(NC(=O)c3ccccn3)cc2)no1 (configuration not stated),0.427 µM
10,Cc1ccccc1N1CCN(c2ncnc3c2cnn3Cc2ccc(Cl)cc2)CC1,4.33 µM
11,Cn1c(N2CCN(c3ccccn3)CC2)nc2c1c(=O)n(Cc1ccc(Cl)cc1)c(=O)n2C,0.0209 µM
12,C=CCn1c(CCNC(=O)c2cccs2)nnc1SCC(=O)c1ccc(Cl)cc1,0.00709 µM
13,CC(Sc1nc(-c2ccccc2)cc(C(F)(F)F)n1)C(=O)N1CCOCC1 (configuration not stated),0.0269 µM
14,C=CCn1c(CCNC(=O)c2cccs2)nnc1SCC(=O)c1cccc([N+](=O)[O-])c1,0.00241 µM
15,COc1ccc(OC)c(CCNC(=O)C2CCN(c3nnc(-n4cccc4)s3)CC2)c1,0.919 µM
16,CC1(C)Cc2c(c(N3CCCC3)nc3sc4c(N5CCN(CCO)CC5)ncnc4c23)CO1,2.96 µM
17,Clc1cccc(-c2nnc(SCc3nc4ccccc4[nH]3)n2Cc2ccco2)c1,10.4 µM
18,CC(=O)Nc1ccc(S(=O)(=O)N2CCC(Oc3ccc(-n4cnnn4)cc3)CC2)cc1,0.0609 µM
19,CC(Sc1nc(-c2ccccc2)cc(C(F)(F)F)n1)C(=O)N1CCCCC1 (configuration not stated),0.0255 µM

# Tested on: not listed separately
# Assay: as above
# Details: FAP-tagged hCCR5 cells, MG2p fluorogen binding, flow cytometry; stronger effect = higher value
row,SMILES,percent span
1,CC(Oc1ccc(Cl)cc1Cl)c1nc(-c2ccc(NC(=O)c3ccco3)cc2)no1 (configuration not stated),42.1% (inactive)
2,Cc1ccc(OCc2nnc(SCc3nc4ccccc4[nH]3)n2Cc2ccco2)cc1,61.9% (inactive)
3,O=C(c1cc2c(=O)n3ccccc3nc2s1)N1CCN(Cc2ccc3c(c2)OCO3)CC1,39.7% (inactive)
4,Cc1ccc(NC(=O)C(c2ccc(Cl)cc2)N2CCOCC2)cc1 (configuration not stated),49.5% (inactive)
5,COC(=O)c1ccc(CNC(=O)c2cc(COc3cncc(Cl)c3)on2)cc1,28.2% (inactive)
6,c1ccc(-c2nnc(SCc3nc4ccccc4[nH]3)n2Cc2ccco2)cc1,15.8% (inactive)
7,Cc1ccc(-c2nc3ncccc3o2)cc1NC(=O)c1sc2ccccc2c1Cl,35.8% (inactive)
8,CCC(NC(=O)c1cc(COc2ccc(C)nc2)on1)c1ccc(C)cc1 (configuration not stated),53.2% (inactive)
9,CCCCN(C(=O)c1ccc(NC(=O)C(C)C)cc1)c1ccccc1,31.9% (inactive)
10,COCc1ccc(CN2CCCC(C(=O)Nc3ccc(-c4cccc(OC)c4)cc3)C2)o1 (configuration not stated),41.6% (inactive)
11,O=C(NC1CCc2ccccc21)c1cc(COc2cncc(Cl)c2)on1 (configuration not stated),4.03% (inactive)
12,CC1(C)Cc2c(c(N3CCOCC3)nc3sc4c(NCCN)ncnc4c23)CO1,116% (inactive)
13,CC(C)CNc1ncnc2c1sc1nc(N3CCOCC3)c3c(c12)CC(C)(C)OC3,-9.78% (inactive)
